Laboratory results: a melting point compilation (Tetko et al.; mined from patent text by program, amines drawn as free bases though some values may be those of a salt)

Compound	melting point
CC1(C)C(=O)N([Si](C)(C)C)C(=O)N1[Si](C)(C)C	46 to 49 °C
O=c1cnn(-c2ccc(C(c3ccc(Cl)cc3)c3cc(-c4ccccc4)cs3)c(Cl)c2)c(=O)[nH]1 (centres undefined)	90 °C
COc1ccc2cc(-c3ccc(C#C[Si](C)(C)C)cc3)[nH]c(=O)c2c1	133 to 135 °C
Cc1c(-c2ccc(O)cc2)n(Cc2ccc(OCCN3CCCC3)cc2)c2ccc(O)cc12	105 to 110 °C
CC(C)n1nc(-c2cc(C(=O)N3CCOCC3)cnc2-c2ccccc2)ccc1=O	132 to 133 °C
CC1CC(NCC(F)(F)F)=NN1c1ccc(Cl)cc1 (centres undefined)	63 to 64 °C
O=C1OC(O)(Nc2ccccc2Br)C(c2ccccc2)C1c1ccccc1 (centres undefined)	162 to 164 °C
Cn1nc(-c2ccc3c(c2)CCNCC3)ccc1=O	183 to 185 °C
Cc1nnc2n1-c1sc(C(=O)O)cc1C(c1ccccc1Cl)=NC2	302 °C
Cc1ccc(S(=O)(=O)N2CCCC(S(=O)(=O)c3ccc(Cl)cc3)C2)cc1 (centres undefined)	186 to 187 °C
CN(Cc1cccc2ccccc12)c1ncnc2c(N3CCOCC3)nc(N3CCC(N(C)C)CC3)nc12	146 to 148 °C
CC(C)NC(=O)c1c(NC(=O)c2cc(C(F)(F)F)nn2-c2ncccc2Cl)ccc2cccnc12	225 to 226 °C
O=C(Nc1ccc(Oc2ccc(Cl)cc2)cc1)Nc1nonc1-c1ccccc1	195 °C
CC(C)c1nc(C#N)c(C#N)[nH]1	146 to 149 °C
O=C(CBr)Nc1ccc(I)cc1	185 °C
COc1cc(C)c2c(c1C)CC(=O)N2	262 to 263 °C
O=C(Nc1cccnc1)N1CCc2c1ccc(Cl)c2Cl	> 240 °C
Nc1ccc(Oc2cccc3ccccc23)nc1	82.2 to 83.7 °C
COOC(=O)c1cc2c(Cl)cn(C)c2nc1C(=O)OOC	129 to 137 °C
CCOC(=O)c1cn(-c2ccc(F)cc2)c2cc(C#C[Si](C)(C)C)ccc2c1=O	247 to 249 °C
Cc1[nH]c2cccnc2c1-c1ccc(F)cc1	199 to 206 °C
COc1c(C)cc2c(c1C)Cc1c-2[nH]c2ccc(C(C)C)cc12	130 °C
CCn1ncc2c3c(cnc21)C(N)(OC)N=C1N=CNN13 (centres undefined)	215 to 216 °C
COC[C@@H](NC(C)=O)C(=O)NCc1ccc(N=[N+]=[N-])cc1	149 to 150 °C

Compound	melting point
Cc1ccc(S(=O)(=O)N2CC2CBr)cc1 (centres undefined)	75 to 78 °C
c1cc2c(N3CCNCC3)csc2cn1	126 to 128 °C
Ic1ccc(SSc2ccc(I)cc2)cc1	122 to 123 °C
O=C1C=C(O)CC(c2ccc3c(c2)CCC3)C1 (centres undefined)	198 °C
CC(=O)c1cn(S(=O)(=O)c2ccccc2)c2nccc(Cl)c12	160 to 162 °C
CCCCCCCCCCCCCCOc1ccc([N+](=O)[O-])cc1OCCCCCCCCCCCCCC	64 to 66 °C
Cc1noc(-c2cc3c4ccccc4n(CCCCl)c3cn2)n1	180 to 185 °C
CNc1cc(C)cc([N+](=O)[O-])c1N	113 °C
Cc1cc(C#N)cc(C(=O)Nc2ccc(F)c(F)c2)n1	170 °C
O=c1[nH]c2sc(Cl)c(C3CC3)c2[nH]c1=O	> 260 °C
Cc1nc2ccccc2cc1NC(=S)N1CCN(c2cc(F)cc(F)c2)CC1	211 to 213 °C
OCc1cccc2cc(-c3ccccc3)oc12	118 °C
Cc1cc(F)c(F)cc1O	68 to 70 °C
COc1c(I)cc(-c2c3ccccc3cc3sc4ccccc4c23)cc1I	228 to 230 °C
Cn1c(=O)c2c(nc(/C=C/c3ccc4c(c3)OCO4)n2C)n(C)c1=O	> 300 °C
Cc1cc(I)ccc1-n1c(C(F)(F)F)nn(C)c1=S	104 to 107 °C
COC(=O)c1ccc(C(=O)N2CCN(C(=O)c3ccc(C(=O)OC)cc3)CC2)cc1	234 to 237 °C
COc1ccc(-c2ccc(C)c(OCC(OC)OC)c2)cc1	39 to 40 °C
COc1cc2c(c3c1OC(C)(C)C3)C(c1ccccc1)=NC(CO)C2 (centres undefined)	156 to 158 °C
CCS(=O)(=O)Nc1cc(-c2ncnc(Cl)c2Cl)c(F)cc1C#N	149 to 150 °C
COc1cc2c(cc1OC)CN(CCc1ccc([N+](=O)[O-])cc1)CC2	118 to 119 °C
Cc1cnc(CCCC#N)c([N+](=O)[O-])c1	53 to 55 °C
O=CN(O)C(CS(=O)(=O)c1ccc(Oc2ccc(OC(F)(F)F)cc2)cc1)CS(=O)(=O)N1CCC2(CC1)OCCO2 (centres undefined)	178 to 179 °C
Nc1nc(-c2cc(Cl)ccc2Cl)nc(N2CCS(=O)(=O)CC2)n1	> 275 °C

More lines, now with the values ahead:

melting point	Compound
222 to 225 °C	Nc1nc(Cl)c2[nH]c(=O)n(CCCCO)c2n1
71 to 72 °C	O=C(NCCc1cccs1)C1CC2C=CC1C2 (centres undefined)
205 to 206 °C	CC(C)(C)c1cc(CC#Cc2ccc(C(=O)O)c(O)c2)cc(C(C)(C)C)c1O
228 °C	COc1ccc(CNC(=O)CCC(=O)c2ccc3[nH]c4ncc(Cl)cc4c3c2)cc1
178 °C	CCOC(=O)c1ccc(-c2cnc3c(c2)N(Cc2ccccc2)C(=O)CN3)cc1
114 °C	CCOC(=O)c1ccc(-c2ccc3c(c2)C(Nc2ccc(Cl)cc2)CC(C)N3C(C)=O)cc1 (centres undefined)
128 °C	CC(C)(C)OC(=O)N1CCC2(C=Cc3ccccc32)CC1
188 °C	O=C(CCc1ccccc1)N[C@H]1C[C@H](C(=O)O)Nc2cc(Cl)cc(Cl)c21 (relative stereo)
70 to 72 °C	COc1cc(Cc2cnc(NCCSCc3ncccc3Br)[nH]c2=O)ccn1
108 to 112 °C	CC(=O)CCc1c(OC(C)=O)cc(C(C)C)c(OC(C)=O)c1C(C)C
220 to 221 °C	CC(=O)OC1CC2=CC(=O)C3C4CCCC4(C)CCC3C2(C)C(OC(C)=O)C1 (centres undefined)
84 to 86 °C	COC(=O)C(=CNc1cc(-c2cccc(Cl)c2)sc1C(=O)O)SC
236 to 240 °C	CCOC(=O)c1cnc2c(-c3ccc(Cc4cccc(OC)c4)cc3)cnn2c1O
122 to 128 °C	CCOC(=O)c1cn(C)c2ccsc2c1=O
82 to 87 °C	CCOC(=O)C1=NOC2(CCC(C(C)(C)CC)CC2)C1 (centres undefined)
160 to 161 °C	CCOC(=O)c1[nH]c2cc(Cl)c(Cl)cc2c1-c1ccc(Cl)cc1Cl
103 to 105 °C	CCOC=C(C(C)=O)C(=O)NCc1ccc(Cl)cc1
64 to 66 °C	CCCC[C@]1(CC)CSc2cc(OC)c(OC)cc2[C@@H](c2ccccc2)N1
158 to 159 °C	CCOC(=O)c1c(C)cc2nc(COC(N)=O)n(-c3ccccc3C(F)(F)F)c(=O)c2c1C

melting point	Compound
105 to 106 °C	O=C(O)Cc1cn(-c2ccccc2)nc1OCc1ccccc1
102 to 104 °C	O=C(CCCCl)c1ccc2oc3ccc(C(=O)CCCCl)cc3c2c1
188 °C	O=C1c2ccccc2C(O)(c2ccccc2)N1CCc1ccc(O)cc1 (centres undefined)
84 to 86 °C	COc1ccc2c(c1)C(=NOCCN(C)C)c1c-2c(N2CCNCC2)nc2ccccc12
157 to 158 °C	C=CC(=O)OCCCCCCCCOc1ccc(C(=O)O)cc1
194 to 196 °C	CC(C)CC(S)C(=O)NC(C)(C)C(=O)NC(Cc1ccc(-c2cccs2)nc1)C(=O)O (centres undefined)
142 °C	CC(C)C(NC(=O)OCc1ccccc1)C(=O)NC(Cc1ccc(OCCN2CCOCC2)cc1)C(=O)C(F)(F)C(=O)NCc1ccccc1 (centres undefined)
208 to 209 °C	COC(=O)c1nsc2nc3ccccc3n12
139 to 141 °C	COC(=O)NCC1Cc2c(Cl)cc3c(c2O1)CCC3 (centres undefined)
177 to 179 °C	CCC(N)C1CCN(c2c(F)cc3c(=O)c(C(=O)O)cn(C4CC4)c3c2F)C1 (centres undefined)
320 °C	O=C(Nc1nc2cc(O)ccc2[nH]1)NC1CC1
92 °C	O=C(C=CCl)CCCN1C(=O)c2ccccc2C1=O
236 to 238 °C	C/C(=C\c1ccc(C(=O)O)cc1)c1cc2c(s1)C(C)(C)CCC2(C)C
119 to 121 °C	CC(=O)c1cn(C)c2ccc(C)cc12
162 to 165 °C	CNC(=NC#N)NCCCCc1nccc(NC(N)=NCCOC)n1
96 to 99 °C	O=C(OC(c1ccccc1)c1ccccc1)C12CCC1CN(Cc1ccccc1)C2 (centres undefined)
118 °C	CCOC(=O)COc1cc(F)ccc1C(=S)NCc1cccc([N+](=O)[O-])c1
56 to 58 °C	O=C(O)CON=CCBr
153 to 154 °C	CCOC(=O)C1(O)C=CC(N=Nc2ccccc2)=CC1 (centres undefined)

melting point	Compound
133 to 135 °C	CNC(=O)N1CCSC1c1ccccc1OCCN1CCN(c2ccccc2)CC1 (centres undefined)
89 to 90 °C	CCOc1ccc2c(c1)c(CC(C)NC(=O)OC(C)(C)C)c1n2CCC1 (centres undefined)
166 °C	COCCN1CCn2c1nc(C(=O)NCc1ccc(F)cc1)c(O)c2=O
125 to 130 °C	O=C(c1cc(-c2ccc(Cl)c(Cl)c2)ccn1)N(O)Cc1ccccc1
143 to 144 °C	CCOC(=O)N1CCOC(CC23CC(c4ccccc42)c2ccccc23)C1 (centres undefined)
127 to 128 °C	O=C(NCc1ccccc1)C1CC=CC(O)C1 (centres undefined)
85 to 88 °C	CCOC(=O)C(SC)C(=O)Nc1ccc(Br)cc1C (centres undefined)
186 to 189 °C	O=C(c1ccc(O)c(Cl)c1)N1CC=CCC1
123 to 124 °C	OCCCOc1cccc(NC(=S)NCC(F)(F)F)n1
165 to 166 °C	COc1ccc(-c2cc(C3CCN(C(=O)c4ccccc4)CC3)nc(N)n2)cc1
220 to 222 °C	CCCCC1=N/C(=C\c2c[nH]c3ncccc23)C(=O)N1C
186 to 188 °C	CC(=O)NC[C@H]1CN(c2ccc(N3CCC(n4ncnn4)CC3)c(F)c2)C(=O)O1
92 to 93 °C	CCOC(=O)c1c(C(C)C)nn(-c2ccccc2)c1-c1ccc(F)cc1
178 to 179 °C	COc1ccc(C(=O)Nc2ccccc2)cc1NC(=S)Nc1cccnc1
214 to 216 °C	Cc1ccc(C=CC(=O)O)cn1
102 to 106 °C	O=[N+]([O-])c1nccn1C(Br)CBr (centres undefined)
170 to 171 °C	O=C(O)c1ccc(-c2ccc3cc(OCc4ccccc4)c(C45CC6CC(CC(C6)C4)C5)cc3c2)s1
159 °C	CC12CC(CCCCCCl)C3c4ccc(O)cc4CCC3C1CCC2O (centres undefined)
